# Source: patent US12054447B2, “PCNA inhibitors” (City of Hope, priority 2015, dated 2024)
# Columns and labels:
# γH2A.X in 7SM0032 cells = assay: Western blot; format: cell-based, human; settings: 500 nM
# Experimental: (§1) Cells were dissolved into the Laemmli sample buffer on the plate. The whole cell extracts were sonicated, and the proteins in the lysate were resolved using a 4-12% SDS polyacrylamide gel, and the resolved proteins were blotted onto a nitrocellulose membrane. Antibodies specific to H2A.X, cleaved caspase-3, full-length caspase-3, or cleaved caspase-9 were purchased from Cell Signaling Technology (Danvers, MA). The anti-γH2A.X antibody was purchased from Millipore. The membrane was blocked with 5% nonfat dry milk and incubated individually with each of these antibodies dissolved in the blocking buffer. After incubation with peroxidase-conjugated secondary antibodies, the protein of interest was detected using an ECL kit purchased from Thermo Fisher Scientific (Waltham, MA).
# [1] = system: γH2A.X, caspase-3 and caspase-9 in SK-N-DZ cells; assay: Western blot; format: cell-based, human; settings: NB cells (SK-N-DZ), 500 nM
# Experimental: as §1
# SK-N-DZ [2] = assay: TUNEL assay / sub-G1 population (apoptosis); format: cell-based, human; settings: NB cells (SK-N-DZ), 500 nM, 24 h
# Experimental: (§2) To measure the effect of the compounds on cell growth, cells were seeded at 3×10^4/ml into a 96-well plate. Once attached, cells were treated with various concentrations of AOH1160 for 72 h. Cell growth was measured by the CellTitor-Glo assay (Promega, Madison, WI) according to the manufacturer's instructions. To measure apoptosis, cells were seeded at 1×10^5/ml onto a chamber slide. Once attached, cells were treated with the 500 nM AOH1160 for 24 h. Cells were fixed and analyzed by a TUNEL assay using the TMR red in situ cell death detection kit (Roche Diagnostics, Indianapolis, IN).
# 7SM0032 = assay: TUNEL assay (apoptosis); format: cell-based, human; settings: 7SM0032 cells, 500 nM, 24 h
# Experimental: as §2
# SK-N-DZ [3] = assay: Clonogenic assay with cisplatin; format: cell-based, human; settings: cisplatin with or without 500 nM AOH1160 for 18 h, 3 weeks
# Experimental: Three hundred human SK-N-DZ NB cells were seeded onto a 60-mm tissue culture dish. Once attached overnight, cells were treated with or without various concentrations of cisplatin in the presence or absence of 500 nM of AOH1160 for 18 h. Cells were washed twice with growth medium and were cultured in fresh medium for 3 weeks to allow surviving cells to form colonies. The medium was changed every 3 days throughout the experiment. The colonies formed under each treatment conditions were counted after being stained with 0.5% crystal violet.
# [4] = system: replication fork extension; assay: DNA fiber assay; format: cell-based; settings: CldU / IdU labeling before and after treatment
# Experimental: FIGS. 3A-3B. […] Synchronized cells were sequentially incubated in the presence of CldU and IdU before and after AOH1160 treatment, respectively. Cells sequentially incubated with the same two nucleotide analogues but without AOH1160 were used as control. Images of FIG. 3A depict representative images of the labeled DNA strands from cells treated with or without AOH1160. FIG. 3B depicts the lengths of CldU (light gray) and IdU (dark gray) incorporated DNA segments measured from more than 30 independent DNA strands in cells treated with or without AOH1160 were averaged and graphed with standard deviations.
# [5] = Pharmacokinetics (PK) of AOH1160 in animals; format: in vivo, Rat; settings: for AUC(0-inf) / Cmax / Tmax / half-life: rat, in vivo, po, 20 mg/kg, Rat PO 20 mg/kg
# NCI-60 panel = NCI-60 panel test, median over the panel; format: cell-based; settings: 60 cancer cell lines, 5-dose study
# Experimental: FIG. 7. NCI-60 panel test. The effect of AOH1160 on growth of the NCI-60 panel, which consists of 60 cancer cell lines representing 9 major cancer types, was tested in a 5-dose study. Shown are the Log IC50 values determined for each cell line. […] This study was performed by the National Institute of Cancer.
# As observed in FIG. 7, the effect of AOH1160 on growth of the NCI-60 panel, which consists of 60 cancer cell lines representing 9 major cancer types, was tested in a 5-dose study. Shown are the Log IC50 values determined for each cell line.
# [6] = system: MDA-MB-436 xenograft tumor; assay: Xenograft of a triple-negative breast cancer cell line in Es1e/SCID mice; format: in vivo; settings: 40 mg/kg once daily
# Experimental: (§3) FIGS. 10A-10B. Inhibition of the growth xenograft tumor derived from a triple-negative breast cancer cell line (MDA-MB-436). Mice bearing xenograft tumors were given vehicle only or 40 mg/kg of AOH1160 through the study. Shown are tumor volumes (FIG. 10A) and mouse body weights (FIG. 10B) in the course of the study. The Es1e/SCID mice used in this study were treated by vehicle only (diamond) or by 40 mg/kg AOH1160 (square) once daily.
# as §3, with “Inhibition” for “FIGS. 10A-10B. Inhibition”
# brain tumors = assay: Brain tumors in mice, luciferase imaging; format: in vivo; settings: given once weekly to tumor bearing mice
# Experimental: (§4) FIG. 12. Effects of AOH1160 on brain tumors in mice. The compound was given to tumor bearing mice once weekly. The brain cancer cells used in this study contains a luciferase. For measuring tumor growth, luciferin was injected into each mouse. The relative growth of the tumors in live mice was determined by measuring luminescent signals by a CCD camera.
# as §4, with “The” for “FIG. 12. Effects of AOH1160 on brain tumors in mice. The”, “compound (AOH1160)” for “compound”, “give into” for “given to”
# [7] = system: SK-N-BE(2)c derived xenograft tumors; settings: 30 mg/kg twice daily (BID) by oral gavages, vs vehicle
compound,measurement,setting,value
O=C(CNC(=O)c1cccc2ccccc12)Nc1ccccc1Oc1ccccc1 [AOH1160],intracellular γH2A.X level,γH2A.X in 7SM0032 cells,Nor does it increase intracellular γH2A.X level
same,caspase activation,[1],activation of caspase-3 and caspase-9
same,γH2A.X levels,[1],increases γH2A.X levels
same,apoptosis,SK-N-DZ [2],apoptosis as indicated by the increase in the sub-G1 population (FIG. 2A) and TUNEL positivity
same,apoptosis,7SM0032,Nor does it increase intracellular γH2A.X level (FIG. 2B) or cause apoptosis
same,sensitivity to cisplatin (colony formation),SK-N-DZ [3],more sensitive to cisplatin treatment in the presence of AOH1160 than in its absence
same,replication fork extension,[4],inhibition of replication fork extension
same,oral availability,[5]; animals,orally available
same,AUC(0-inf),[5]; BID dosing,429 ± 195 ng·h/mL
same,Cmax,[5]; BID dosing,73 ± 23 ng/mL
same,Tmax,[5]; BID dosing,6 h
same,half-life,[5]; BID dosing,4.3 ± 1.7 h
same,AUC(0-inf),[5]; Single dosing,383 ± 110 ng·h/mL
same,Cmax,[5]; Single dosing,50 ± 31 ng/mL
same,Tmax,[5]; Single dosing,3.3 ± 2.3 h
same,half-life,[5]; Single dosing,3.8 ± 31 h
same,IC50,NCI-60 panel,~320 nM
same,weight loss,[6],caused no significant weight loss
same,tumor growth (tumor volumes),[6]; vs vehicle,inhibited tumor growth
same,brain tumor growth (luminescent signals),brain tumors,inhibited brain tumor growth
same,tumor burden,[7],significantly reduced tumor burden
